Assay results taken from paper PMC12316308, “Interactions of substrates and phosphinyl containing inhibitors with bacterial and human zinc proteases” (PLOS One, 2025).
“And” between values parts separate entries of the source, which are not always exact repeats. Equal values may be shown once. Read-outs that look alike come from different tables or passages of the source.

Tests used:
Assay type in all cases: biochemical
[1] = molecular target: T1, human MT1-MMP/MMP-14 (catalytic domain) (Homo sapiens, UniProt P50281); assay: Enzyme inhibition kinetics, fluorogenic substrate ES001; settings: MMP-14; for remaining activity at 100 µM: 100 µM inhibitor
T1 construct: human MT1-MMP/MMP-14 (catalytic domain); purchased Calbiochem (San Diego, CA, USA)
Procedure: (§1) Determination of reaction velocities. The substrate ES001 was used for APMA activated MMP-9 (MMP-9(A)), Mag-Trypsin activated MMP-9 (MMP-9(MT)) and MMP-14, while the substrate ES005 was used for ALN, PLN and TLN. The reaction velocities/initial rates (v) were determined at 37°C, at an excitation wavelength of 320 nm and an emission wavelength of 405 nm with a slit width of 10 nm using either a Perkin Elmer LS 50 Luminescence spectrometer and the FL WinLab Software Package (Perkin Elmer) or a Clario Star micro plate reader (CLARIOstar® BMG LABTECH).
(§2) The phosphinic compounds were dissolved in 100% DMSO to a final concentration of 10 mM. In all assays, a fixed substrate concentration of 4.0 µM was used in a total volume of 100 µL 0.1 M Hepes pH 7.5, 10 mM CaCl2, 0.005% Brij-35 and 1.0% DMSO. Fixed enzyme concentrations were as follows; 0.05 nM MMP-9(A), 0.05 nM MMP-9(MT), 1.0 nM MMP-14, 1.4 nM ALN, 0.5 nM PLN and 0.21 nM TLN. Time dependent inhibitory experiments, with and without 100 μM of phosphinic compounds, were performed as follows: Compounds were either pre-incubated with proteases for 15 and 30 minutes at room temperature before initiating the enzymatic reaction by adding the substrate, or not pre-incubated, meaning the reaction was initiated by adding the protease to the mixture of substrate and compound. Control tests without the compound present were performed under the same conditions. Reactions were monitored for 30 minutes at 37°C.
(§3) Determination of IC50 and Ki values. […] A fixed substrate concentration and the same enzyme and buffer conditions as described above were used. Enzymes, with or without inhibitors, were either pre-incubated for 30 minutes at room temperature or not pre-incubated, and initial rate assays were performed as described above. Assays were performed using a Clario Star microplate reader. The IC50 values with corresponding s.d. were calculated with GraphPad Prism 5 using equation 1 or 2, depending on the concentration range of the phosphinic compounds.
(§4) Equation 3 describe the relationship between IC50 and Ki values for substrate competitive inhibitors, considering the fixed substrate concentration and the enzyme’s Km value for the substrate: […]

[2] = molecular target: T2, thermolysin (TLN) (Bacillus thermoproteolyticus, UniProt P00800); assay: Enzyme inhibition kinetics, fluorogenic substrate ES005; settings: for vi/v0 avg (time dependent inhibition, Supplementary Figure S8): Thermolysin, inhibitor 100 µM
T2 construct: purchased Calbiochem (San Diego, CA, USA)
T2 sequence (P00800 233-548): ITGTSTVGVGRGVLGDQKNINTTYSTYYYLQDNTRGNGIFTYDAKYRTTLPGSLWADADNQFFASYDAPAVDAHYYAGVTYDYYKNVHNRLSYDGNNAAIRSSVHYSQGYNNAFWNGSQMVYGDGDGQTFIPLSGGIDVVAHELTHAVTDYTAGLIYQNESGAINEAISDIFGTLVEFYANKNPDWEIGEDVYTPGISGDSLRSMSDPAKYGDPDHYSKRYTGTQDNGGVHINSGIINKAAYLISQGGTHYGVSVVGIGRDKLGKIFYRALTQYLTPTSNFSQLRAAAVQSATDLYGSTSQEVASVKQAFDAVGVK
Procedure: as §1, §2, §3, §4

[3] = molecular target: T3, pseudolysin (PLN, LasB) (Pseudomonas aeruginosa, UniProt P14756); assay: as above; settings: for remaining activity at 100 µM: 100 µM inhibitor
T3 construct: purchased Calbiochem (San Diego, CA, USA)
T3 sequence (P14756 198-498): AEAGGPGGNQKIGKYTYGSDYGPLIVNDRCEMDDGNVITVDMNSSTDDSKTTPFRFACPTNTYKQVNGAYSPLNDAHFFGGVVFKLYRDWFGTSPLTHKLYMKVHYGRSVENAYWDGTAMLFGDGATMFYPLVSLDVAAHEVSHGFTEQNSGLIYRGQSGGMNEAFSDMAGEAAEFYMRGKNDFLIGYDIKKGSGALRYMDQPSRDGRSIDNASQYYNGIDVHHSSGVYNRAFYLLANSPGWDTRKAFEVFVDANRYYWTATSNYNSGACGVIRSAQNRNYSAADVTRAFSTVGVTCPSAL
Procedure: as §1, §2, §3, §4

[4] = molecular target: T4, aureolysin (ALN) (Staphylococcus aureus, UniProt P81177); assay: as above; settings: for remaining activity at 100 µM: 100 µM inhibitor
T4 construct: purchased BioCentrum Ltd (Kraków, Poland)
T4 sequence (P81177 209-509): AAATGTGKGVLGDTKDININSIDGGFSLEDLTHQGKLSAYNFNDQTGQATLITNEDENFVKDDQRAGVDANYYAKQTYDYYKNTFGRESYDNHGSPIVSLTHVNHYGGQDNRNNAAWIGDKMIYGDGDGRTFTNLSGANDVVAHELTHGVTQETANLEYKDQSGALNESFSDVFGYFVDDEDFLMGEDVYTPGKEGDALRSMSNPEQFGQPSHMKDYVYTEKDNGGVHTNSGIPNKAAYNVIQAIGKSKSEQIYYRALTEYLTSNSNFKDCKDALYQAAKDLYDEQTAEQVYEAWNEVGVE
Procedure: as §1, §2, §3, §4

[5] = molecular target: T5, APMA activated MMP-9 (MMP-9(A)) (Homo sapiens, UniProt P14780); assay: Enzyme inhibition kinetics, fluorogenic substrate ES001; settings: rMMP-9 (APMA activated); for remaining activity at 100 µM: 100 µM inhibitor
T5 construct: made in house; host or cells: Sf9 and High Five insect cells
T5 sequence (P14780 107-707 limits assumed): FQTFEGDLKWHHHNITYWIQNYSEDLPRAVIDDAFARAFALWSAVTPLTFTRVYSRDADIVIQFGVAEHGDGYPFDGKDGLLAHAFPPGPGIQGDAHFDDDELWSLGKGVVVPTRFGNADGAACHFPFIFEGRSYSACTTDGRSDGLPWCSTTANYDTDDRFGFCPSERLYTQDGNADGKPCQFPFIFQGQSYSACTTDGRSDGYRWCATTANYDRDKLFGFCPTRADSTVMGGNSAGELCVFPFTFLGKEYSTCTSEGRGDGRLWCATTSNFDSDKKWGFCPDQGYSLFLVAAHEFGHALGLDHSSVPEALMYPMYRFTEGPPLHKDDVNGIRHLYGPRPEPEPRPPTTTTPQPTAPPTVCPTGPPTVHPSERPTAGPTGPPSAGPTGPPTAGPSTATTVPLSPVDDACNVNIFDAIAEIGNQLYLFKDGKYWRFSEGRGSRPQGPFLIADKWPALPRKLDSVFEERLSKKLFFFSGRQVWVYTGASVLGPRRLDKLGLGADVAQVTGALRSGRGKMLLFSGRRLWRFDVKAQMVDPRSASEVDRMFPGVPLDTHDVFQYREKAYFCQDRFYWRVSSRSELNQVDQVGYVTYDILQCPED
Procedure: (§5) The expression of recombinant full length proMMP-9 (rpMMP-9) in Sf9 and High Five insect cells and the purification were performed as previously described. The amount of proMMP-9 was estimated spectrophotometrically at 280 nm using ε280nm = […] [46] for the full length enzyme. Activation of the recombinant proMMP-9 was performed with APMA (auto-activation) and Mag-Trypsin as previously described, while the amount of active MMP-9 was determined by active site titration using galardin, also described previously.
as §1, §2, §3, §4

[6] = molecular target: T6, Mag-Trypsin activated MMP-9 (MMP-9(MT)) (Homo sapiens, UniProt P14780); assay: as above; settings: rMMP-9 (Mag-trypsin activated); for remaining activity at 100 µM: 100 µM inhibitor
T6 construct: made in house; host or cells: Sf9 and High Five insect cells
T6 sequence (P14780 107-707 limits assumed): as above
Procedure: as §5, §1, §2, §3, §4

[7] = 0.25 h, 15 min pre incubation, read-out: vi/v0 avg
[8] = 0.5 h, 30 min pre incubation, read-out: vi/v0 (single replicate)
[9] = 0.5 h, 30 min pre incubation, read-out: vi/v0 avg
[10] = no preincubation, read-out: vi/v0 avg
[11] = inhibitor 100 μM, preincubation 0 min
[12] = inhibitor 100 μM, preincubation 15 min
[13] = inhibitor 100 μM, preincubation 30 min
[14] = 0.25 h, 15 min pre incubation, read-out: vi/v0 (single replicate)
[15] = no preincubation, read-out: vi/v0 (single replicate)
[16] = inhibitor 100 μM, average over 0, 15, 30 min preincubation

## CC(NC(=O)OCc1ccccc1)P(=O)(O)CC(Cc1ccccc1)C(=O)O (centres unmarked) [H4]
[1]; [7]
  remaining activity at 100 µM: 101%
[1]; [8]
  remaining activity at 100 µM: 101%
[1]; [9]
  remaining activity at 100 µM: 102%
[1]; [10]
  remaining activity at 100 µM: 106%
[1]; inhibitor 100 μM, average over preincubation times
  vi/v0 Av (bar diagram figure 7): 1.032
[1]; [11]
  vi/v0 (relative enzyme activity with inhibitor), single determinations: 1.105 and 1.3078 and 1.015 and 0.8074
[1]; [12]
  vi/v0 (relative enzyme activity with inhibitor), single determinations: 0.8428 and 1.155 and 1.039
[1]; [13]
  vi/v0 (relative enzyme activity with inhibitor), single determinations: 1.0115 and 1.061 and 0.9741
[2]; Thermolysin (TLN), inhibitor 100 μM, average over 0, 15, 30 min preincubation
  vi/v0 Av (bar diagram figure 7): 0.9988
[2]; Thermolysin (TLN), inhibitor 100 μM, preincubation 0 min
  vi/v0 (relative enzyme activity with inhibitor), single determinations: 1.0006 and 1.038 and 0.8834 and 0.9657
[2]; Thermolysin (TLN), inhibitor 100 μM, preincubation 15 min
  vi/v0 (relative enzyme activity with inhibitor), single determinations: 1.066 and 0.8371 and 1.067 and 1.122
[2]; Thermolysin (TLN), inhibitor 100 μM, preincubation 30 min
  vi/v0 (relative enzyme activity with inhibitor), single determinations: 1.04 and 0.9732 and 1.001 and 0.9929
[2]; 15 min pre incubation
  vi/v0 avg (time dependent inhibition, Supplementary Figure S8): 1.023
[2]; 30 min pre incubation
  vi/v0 avg (time dependent inhibition, Supplementary Figure S8): 1.002
[2]; No preincubation
  vi/v0 avg (time dependent inhibition, Supplementary Figure S8): 0.9718
[3]; 0.25 h, read-out: vi/v0 (single replicate), Pseudolysin, 15 min pre incubation
  remaining activity at 100 µM: 75.8%
[3]; 0.25 h, read-out: vi/v0 avg, Pseudolysin, 15 min pre incubation
  remaining activity at 100 µM: 75.4%
[3]; 0.5 h, read-out: vi/v0 (single replicate), Pseudolysin, 30 min pre incubation
  remaining activity at 100 µM: 64.2%
[3]; 0.5 h, read-out: vi/v0 avg, Pseudolysin, 30 min pre incubation
  remaining activity at 100 µM: 64%
[3]; Pseudolysin (PLN), inhibitor 100 μM, average over 0, 15, 30 min preincubation
  vi/v0 Av (bar diagram figure 7): 0.7111
[3]; Pseudolysin (PLN), inhibitor 100 μM, preincubation 0 min
  vi/v0 (relative enzyme activity with inhibitor), single determinations: 0.8985 and 0.6806 and 0.6817
[3]; Pseudolysin (PLN), inhibitor 100 μM, preincubation 15 min
  vi/v0 (relative enzyme activity with inhibitor), single determinations: 0.7584 and 0.7504
[3]; Pseudolysin (PLN), inhibitor 100 μM, preincubation 30 min
  vi/v0 (relative enzyme activity with inhibitor), single determinations: 0.6423 and 0.5711 and 0.7059
[3]; read-out: vi/v0 avg, Pseudolysin, no preincubation
  remaining activity at 100 µM: 75.4%
[4]; 0.25 h, read-out: vi/v0 (single replicate), Aureolysin, 15 min pre incubation
  remaining activity at 100 µM: 91.1%
[4]; 0.25 h, read-out: vi/v0 avg, Aureolysin, 15 min pre incubation
  remaining activity at 100 µM: 90.2%
[4]; 0.5 h, read-out: vi/v0 (single replicate), Aureolysin, 30 min pre incubation
  remaining activity at 100 µM: 90.1%
[4]; 0.5 h, read-out: vi/v0 avg, Aureolysin, 30 min pre incubation
  remaining activity at 100 µM: 89.4%
[4]; Aureolysin (ALN), inhibitor 100 μM, average over 0, 15, 30 min preincubation
  vi/v0 Av (bar diagram figure 7): 0.8998
[4]; Aureolysin (ALN), inhibitor 100 μM, preincubation 0 min
  vi/v0 (relative enzyme activity with inhibitor), single determinations: 0.9356 and 0.8634 and 0.8536 and 0.9579
[4]; Aureolysin (ALN), inhibitor 100 μM, preincubation 15 min
  vi/v0 (relative enzyme activity with inhibitor), single determinations: 0.9112 and 0.976 and 0.8542 and 0.865
[4]; Aureolysin (ALN), inhibitor 100 μM, preincubation 30 min
  vi/v0 (relative enzyme activity with inhibitor), single determinations: 0.898 and 0.8819
[4]; read-out: vi/v0 (single replicate), Aureolysin, no preincubation
  remaining activity at 100 µM: 93.6%
[4]; read-out: vi/v0 avg, Aureolysin, no preincubation
  remaining activity at 100 µM: 90.3%
[5]; [14]
  remaining activity at 100 µM: 99.2%
[5]; [7]
  remaining activity at 100 µM: 95%
[5]; [9]
  remaining activity at 100 µM: 100%
[5]; [15]
  remaining activity at 100 µM: 94.1%
[5]; [10]
  remaining activity at 100 µM: 99.6%
[5]; [16]
  vi/v0 Av (bar diagram figure 7): 0.9837
[5]; [11]
  vi/v0 (relative enzyme activity with inhibitor), single determinations: 0.9415 and 1.015 and 1.031
[5]; [12]
  vi/v0 (relative enzyme activity with inhibitor), single determinations: 0.9922 and 0.9231 and 0.9335
[5]; [13]
  vi/v0 (relative enzyme activity with inhibitor), single determinations: 1.197 and 1.012 and 1.109 and 0.6833
[6]; [14]
  remaining activity at 100 µM: 93.4%
[6]; [7]
  remaining activity at 100 µM: 93.8%
[6]; [8]
  remaining activity at 100 µM: 97.8%
[6]; [9]
  remaining activity at 100 µM: 96.3%
[6]; [15]
  remaining activity at 100 µM: 84.9%
[6]; [10]
  remaining activity at 100 µM: 88.4%
[6]; [16]
  vi/v0 Av (bar diagram figure 7): 0.9238
[6]; [11]
  vi/v0 (relative enzyme activity with inhibitor), single determinations: 0.8486 and 0.9422 and 0.8609
[6]; [12]
  vi/v0 (relative enzyme activity with inhibitor), single determinations: 0.9336 and 1.006 and 0.8738
[6]; [13]
  vi/v0 (relative enzyme activity with inhibitor), single determinations: 0.9779 and 0.9473
